According to patent US20040002526A1, “Phospholipase D inhibitors and uses thereof” (Cell Therapeutics, Inc., priority 2002, published 2004):

Target: T1, PLD (phospholipase D)
T1 construct: fused on or other part: N-terminal polyhistidine tag (pFastBac HTc) on either enzyme
Experiment: In vitro assay of PLD activity ([3H]-choline release from labelled PC)
Format: biochemical, human
Settings: Table 1, monocyclic thiazolidinones of Formula I; PLD isoform not stated; read-out: IC50
Description: Recombinant PLD1 and PLD2—Human PLD1 and PLD2 were isolated from Sf9 insect cells that had been infected with recombinant baculovirus vector, pFastBac™HTc vector (Life Technologies, Gaithersburg, Md.), containing PLD1 or PLD2 cDNAs.
PLD1 activity was assayed by measuring the generation of [^3H]-choline from [choline-methyl^3H](16:0, 16:0)PC.
The assay procedure for PLD2 was similar to that for PLD1, with the exception that arf1, PKC-α, and GTPγS were omitted from the reaction mixture. After addition of enzymes, the reactions were incubated for 1 hour at room temperature. Twenty microliters of 12% trichloroacetic acid (TCA) then were added to each sample, to stop the reaction and to precipitate the unreacted [choline-methyl^3H](16:0, 16:0)PC. Thereafter, the samples were passed through 0.65 μm Millipore 96 well filter plates to removed the excess [choline-methyl^3H](16:0, 16:0)PC. For each sample the filtrate (50 μl), which contained the [^3H]-choline released by PLD cleavage of PC, was analyzed using a TopCount™ Liquid Scintillation Counter, a product of Packard (Meriden, Conn.).

Compound | IC50 [µM]
Cc1ccc(CN2C(=O)/C(=C/c3ccc(-c4ccc(S(N)(=O)=O)cc4)o3)SC2=S)cc1 [Compound 38, 4-{5-[3-(4-methyl-benzyl)-4-oxo-2-thioxo-thiazolidin-5-ylidenemethyl]-furan-2-yl}-benzenesulfonamide] | 6
N#Cc1ccc(-c2ccc(/C=C3\SC(=S)N(Cc4cccnc4)C3=O)o2)cc1 [Compound 39, 4-[5-(4-oxo-3-pyridin-3-ylmethyl-2-thioxo-thiazolidin-5-ylidenemethyl)-furan-2-yl]-benzonitrile] | 4
CN(C)c1ccc(/C=C/C=C2\SC(=S)N(c3ccc(C(=O)O)cc3)C2=O)cc1 [Compound 40, 4-{5-[3-(4-dimethylamino-phenyl)-allylidene]-4-oxo-2-thioxo-thiazolidin-3-yl}-benzoic acid] | 8
O=C(O)c1ccc(N2C(=O)/C(=C/c3cc4ccccc4o3)SC2=S)cc1 [Compound 41, 4-(5-benzofuran-2-ylmethylene-4-oxo-2-thioxo-thiazolidin-3-yl)-benzoic acid] | 2

Same assay, conditions: Table 2, bicyclic thiazolidinones of Formula II; PLD isoform not stated; read-out: IC50

Compound | IC50 [µM]
CCOC(=O)C1=C(C)N=c2s/c(=C\c3ccc(-c4ccc(C(=O)O)cc4)o3)c(=O)n2C1c1ccc(OC)c(OC)c1 (stereo not shown) [Compound 42, 2-[5-(4-Carboxy-phenyl)-furan-2-ylmethylene]-5-(3,4-dimethoxy-phenyl)-7-methyl-3-oxo-2,3-dihydro-5H-thiazolo[3,2-a]pyrimidine-6-carboxylic acid ethyl ester] | 4.5
CCOC(=O)C1=C(C)N=c2s/c(=C\c3ccc(-c4ccc(C(=O)O)cc4)o3)c(=O)n2C1c1ccc(N(C)C)cc1 (stereo not shown) [Compound 43, 2-[5-(4-Carboxy-phenyl)-furan-2-ylmethylene]-5-(4-dimethylamino-phenyl)-7-methyl-3-oxo-2,3-dihydro-5H-thiazolo[3,2-a]pyrimidine-6-carboxylic acid ethyl ester] | 2.7
CCOC(=O)C1=C(C)N=c2s/c(=C\c3ccc(-c4ccc(C(=O)O)cc4)o3)c(=O)n2C1c1ccc2c(c1)OCO2 (stereo not shown) [Compound 44, 5-Benzo[1,3]dioxol-5-yl-2-[5-(4-carboxy-phenyl)-furan-2-ylmethylene]-7-methyl-3-oxo-2,3-dihydro-5H-thiazolo[3,2-a]pyrimidine-6-carboxylic acid ethyl ester] | 2.3
CCOC(=O)C1=C(C)N=c2s/c(=C\c3ccc(-c4ccc(Cl)c(C(=O)O)c4)o3)c(=O)n2C1c1ccc(N(C)C)cc1 (stereo not shown) [Compound 45, 2-[5-(3-Carboxy-4-chloro-phenyl)-furan-2-ylmethylene]-5-(4-dimethylamino-phenyl)-7-methyl-3-oxo-2,3-dihydro-5H-thiazolo[3,2-a]pyrimidine-6-carboxylic acid ethyl ester] | 1.9
CCOC(=O)C1=C(C)N=c2s/c(=C\c3ccc(-c4cccc(C(=O)O)c4)o3)c(=O)n2C1c1ccccc1 (stereo not shown) [Compound 46, 2-[5-(3-Carboxy-phenyl)-furan-2-ylmethylene]-7-methyl-3-oxo-5-phenyl-2,3-dihydro-5H-thiazolo[3,2-a]pyrimidine-6-carboxylic acid ethyl ester] | 4.3
CCOC(=O)C1=C(C)N=c2s/c(=C\c3ccc(-c4cccc(C(=O)O)c4)o3)c(=O)n2C1c1ccc(OC)cc1 (stereo not shown) [Compound 47, 2-[5-(3-Carboxy-phenyl)-furan-2-ylmethylene]-5-(4-methoxy-phenyl)-7-methyl-3-oxo-2,3-dihydro-5H-thiazolo[3,2-a]pyrimidine-6-carboxylic acid ethyl ester] | 2
CCOC(=O)C1=C(C)N=c2s/c(=C\c3ccc(-c4ccc(C(=O)O)cc4)o3)c(=O)n2C1c1ccc(C)cc1 (stereo not shown) [Compound 48] | 3.5
CCOC(=O)C1=C(C)N=c2s/c(=C\c3ccc(-c4cccc(C(=O)O)c4)o3)c(=O)n2C1c1ccc(C)cc1 (stereo not shown) [Compound 49, 2-[5-(3-Carboxy-phenyl)-furan-2-ylmethylene]-7-methyl-3-oxo-5-p-tolyl-2,3-dihydro-5H-thiazolo[3,2-a]pyrimidine-6-carboxylic acid ethyl ester] | 2.8
CCOC(=O)C1=C(C)N=c2s/c(=C\c3ccc(-c4ccc(C(=O)O)cc4)o3)c(=O)n2C1c1ccc(Cl)cc1 (stereo not shown) [Compound 50, 2-[5-(4-Carboxy-phenyl)-furan-2-ylmethylene]-5-(4-chloro-phenyl)-7-methyl-3-oxo-2,3-dihydro-5H-thiazolo[3,2-a]pyrimidine-6-carboxylic acid ethyl ester] | 3.4
CCOC(=O)C1=C(C)N=c2s/c(=C\c3ccc(-c4cccc(C(=O)O)c4)o3)c(=O)n2C1c1ccc2c(c1)OCO2 (stereo not shown) [Compound 51, 5-Benzo[1,3]dioxol-5-yl-2-[5-(3-carboxy-phenyl)-furan-2-ylmethylene]-7-methyl-3-oxo-2,3-dihydro-5H-thiazolo[3,2-a]pyrimidine-6-carboxylic acid ethyl ester] | 2.7
CCOC(=O)C1=C(C)N=c2s/c(=C\c3ccc(-c4cccc(C(=O)O)c4)o3)c(=O)n2C1c1ccccc1Cl (stereo not shown) [Compound 52, 2-[5-(3-Carboxy-phenyl)-furan-2-ylmethylene]-5-(2-chloro-phenyl)-7-methyl-3-oxo-2,3-dihydro-5H-thiazolo[3,2-a]pyrimidine-6-carboxylic acid ethyl ester] | 4
CCOC(=O)C1=C(C)N=c2s/c(=C\c3ccc(-c4cccc(C(=O)O)c4)o3)c(=O)n2C1c1ccc(N(C)C)cc1 (stereo not shown) [Compound 55, 2-[5-(3-Carboxy-phenyl)-furan-2-ylmethylene]-5-(4-dimethylamino-phenyl)-7-methyl-3-oxo-2,3-dihydro-5H-thiazolo[3,2-a]pyrimidine-6-carboxylic acid ethyl ester] | 0.7
CCOC(=O)C1=C(C)N=c2s/c(=C/c3ccc(-c4ccc(Cl)c(C(=O)O)c4)o3)c(=O)n2C1c1ccccc1OC (stereo not shown) [Compound 56, 2-[5-(3-Carboxy-4-chloro-phenyl)-furan-2-ylmethylene]-5-(2-methoxy-phenyl)-7-methyl-3-oxo-2,3-dihydro-5H-thiazolo[3,2-a]pyrimidine-6-carboxylic acid ethyl ester] | 2.6
CCOC(=O)C1=C(C)N=c2s/c(=C\c3ccc(-c4ccc(C(=O)O)cc4)o3)c(=O)n2C1c1c(OC)ccc2ccccc12 (stereo not shown) [Compound 57, 2-[5-(4-Carboxy-phenyl)-furan-2-ylmethylene]-5-(2-methoxy-naphthalen-1-yl)-7-methyl-3-oxo-2,3-dihydro-5H-thiazolo[3,2-a]pyrimidine-6-carboxylic acid ethyl ester] | 3.7
CCOC(=O)C1=C(C)N=c2s/c(=C\c3ccc(-c4ccccc4C(=O)O)o3)c(=O)n2C1c1ccc(SC)cc1 (stereo not shown) [Compound 58, 2-[5-(2-Carboxy-phenyl)-furan-2-ylmethylene]-7-methyl-5-(4-methylsulfanyl-phenyl)-3-oxo-2,3-dihydro-5H-thiazolo[3,2-a]pyrimidine-6-carboxylic acid ethyl ester] | 4
CCOC(=O)C1=C(C)N=c2s/c(=C/c3ccc(-c4cccc(C(=O)O)c4)o3)c(=O)n2C1c1ccccc1OC (stereo not shown) [Compound 59, 2-[5-(3-Carboxy-phenyl)-furan-2-ylmethylene]-5-(2-methoxy-phenyl)-7-methyl-3-oxo-2,3-dihydro-5H-thiazolo[3,2-a]pyrimidine-6-carboxylic acid ethyl ester] | 4.1

Same assay, conditions: Table 3, tricyclic thiazolidinones of Formula II; PLD isoform not stated; read-out: IC50

Compound | IC50 [µM]
Cc1cc2nc3s/c(=C\c4ccc(-c5ccc(O)c(C(=O)O)c5)o4)c(=O)n3c2cc1C [Compound 60, 5-[5-(6,7-Dimethyl-3-oxo-benzo[4,5]imidazo[2,1-b]thiazol-2-ylidenemethyl)-furan-2-yl]-2-hydroxy-benzoic acid] | 3.6
Cc1cc2nc3s/c(=C/c4ccc(-c5cccc(C(=O)O)c5)o4)c(=O)n3c2cc1C [Compound 61, 3-[5-(6,7-Dimethyl-3-oxo-benzo[4,5]imidazo[2,1-b]thiazol-2-ylidenemethyl)-furan-2-yl]-benzoic acid] | 3.4
